Tested on: S-protein
Assay type: cell-based, SARS-CoV-2

## CC(C)c1nc(CN(C)C(=O)N[C@@H](CCN2CCOCC2)C(=O)N[C@H](CC[C@H](Cc2ccccc2)NC(=O)OCc2cncs2)Cc2ccccc2)cs1 [Cobicistat, 1,3-thiazol-5-ylmethyl [(2R,5R)-5-{[(2S)-2-({[(2-isopropyl-1,3-thiazol-4-yl)methyl](methyl)carbamoyl}amino)-4-(morpholin-4-yl)butanoyl]amino}-1,6-diphenylhexan-2-yl]carbamate]
  S-protein levels: decreased
  concentration range with effect in western blot analysis: 5 to 10 µM
